Holding throughout (format): cell-based
For one data set, the system named is VZV. Nature of the data set: Plaque Reduction Test for Varicella-Zoster Virus (Ellen strain) in MRC-5 cells. Particulars: Human alphaherpesvirus 3, MRC5. As for the experimental part: (§1) MRC-5 cells were grown to confluence in 24 well multi-dishes (well diameter=1.5 cm). The drained cell monolayers were each infected with approximately 50 infectious particles of varicella zoster virus (VZV; Ellen strain) in 100 μl of phosphate-buffered saline. The virus was adsorbed for 1 hour at room temperature. After adsorption, residual inoculum was removed from each well and replaced with 0.5 ml of Eagle's MEM containing 5% heat-inactivated foetal calf serum and 0.9% agarose (A37). Once the agarose had set, dilutions of the test compound, which had been prepared in Eagle's MEM (containing 5% heat-inactivated foetal calf serum), were added, each well receiving 0.5 ml of liquid overlay. The test compound was diluted to give the following series of concentrations: 200, 60, 20, 6 . . . 0.06 μg/ml; final concentrations in the assay ranged, therefore, between 100 μg/ml and 0.03 μg/ml. The infected cultures were incubated at 37° C. in a humidified atmosphere of 5% CO2 until plaques were clearly visible (5 or 6 days).
(§2) Cultures from 1 and 2 were fixed in formal saline, the agarose overlays were carefully washed off, and then the cell monolayers were stained with carbol fuchsin. A stereo microscope was used to count plaques. The IC50 (concentration of drug which inhibits the number of plaques formed by 50% relative to the number of plaques observed in virus control monolayers) of the test compound was calculated. In addition, the monolayers were examined for evidence of drug-induced cytotoxicity; the minimum concentration at which cytotoxicity occurs was recorded.
On the technique in general: Plaque reduction counts the foci of infection that form in a cell layer.

Another data set deals with HSV-1. Nature of the data set: Plaque Reduction Test for Herpes Simplex Virus 1 (strain SC16) in MRC-5 cells. To be noted: Human alphaherpesvirus 1, MRC5. As for the experimental part: as §1, with “herpes simplex” for “varicella zoster”, “1 (HSV-1; strain SC16) or herpes simplex virus 2 (HSV-2; strain MS)” for “(VZV; Ellen strain)”, “newborn” for “heat-inactivated foetal”, “(usually 1 day).” for “(5 or 6 days).”
as §2

A further data set relates to CMV. Nature of the data set: Plaque Reduction Test for Cytomegalovirus (AD-169 strain) in MRC-5 cells. To be noted: Human betaherpesvirus 5, AD169, MRC5. As for the experimental part:
MRC-5 cells were grown to confluence in 24 well multi-dishes (well diameter=1.5 cm). The drained cell monolayers were each infected with approximately 50 infectious particles of cytomegalovirus (CMV; AD-169 strain) in 100 μl of phosphate-buffered saline. The virus was adsorbed for 1 hour at room temperature. After adsorption, residual inoculum was removed from each well and replaced with 1 ml of Eagle's MEM containing 10% heat inactivated foetal calf serum and 0.9% agarose (A37). Once the agarose had set, dilutions of the test compound, which had been prepared in Eagle's MEM (containing 10% heat-inactivated calf serum), were added, each well receiving 1 ml of liquid overlay. The test compound was diluted to give the following series of concentrations: 200, 60, 20, 6 . . . 0.06 μg/ml; final concentrations in the assay range, therefore, between 100 μg/ml and 0.03 μg/ml. The infected cultures were incubated at 37° C. in a humidified atmosphere containing 5% CO2 until plaques were clearly visible (about 12 days). The cultures are fixed in formol saline, the agarose overlays were carefully washed off, and then the cell monolayers were stained with carbol fuchsin. A stereo microscope was used to count plaques. The IC50 (concentration of drug which inhibits the number of plaques formed by 50% relative to the number of plaques observed in virus control monolayers) of the test compound was calculated. In addition, the monolayers were examined for evidence of drug-induced cytotoxicity; the minimum concentration at which cytotoxicity occurs was recorded.

For another data set, the system named is HSV-2. Nature of the data set: Plaque Reduction Test for Herpes Simplex Virus 2 (strain MS) in MRC-5 cells. To be noted: Human alphaherpesvirus 2, MRC5. As for the experimental part:
as §1, with “herpes simplex” for “varicella zoster”, “1 (HSV-1; strain SC16) or herpes simplex virus 2 (HSV-2; strain MS)” for “(VZV; Ellen strain)”, “newborn” for “heat-inactivated foetal”, “(usually 1 day).” for “(5 or 6 days).”
as §2

Data set [1] is described as follows: Cytotoxicity for the cell monolayers in the FIV test. To be noted: cat, crandell feline kidney cells, no cytotoxicity noted with concentrations up to this value, read-out: cytotoxicity for the cell monolayers. Here is the method: Drug stocks were diluted to the appropriate concentration, in medium (e.g. 10 mg/ml to 200 μg/ml). 150 μl of each drug was dispersed in triplicate, across the top row of a microtitre plate (150 μl of media for virus and cell control, vc and cc). 100 μl of medium was dispersed into all other wells. The wells were serially diluted moving down the plate, removing 50 μl from each well and transferring to the next row. 50 μl was discarded from the bottom wells.
Trypsinisation was carried out from a confluent cell monolayer of Crandell Feline Kidney cells, in 10% trypsin, followed by resuspension in media at 1×10^6 per ml, ensuring that a single cell suspension is achieved. (Media: 90% 1×RPMI, 25 mM hepes buffer; 10% Foetal calf serum; 2% Glutamine; 2% penecillin/streptomycin.)
FIV Glasgow 8 virus was diluted to 4× the required virus challenge in medium (40 TCID50 /ml). The virus infected medium was mixed with an equal volume of cell suspension, 100 μl of which was aliquoted into each well of the drug plate, except cell control. 100 μl of cell suspension at 5×10^4 per ml was added to the latter. This gives a final cell concentration of 2.5×10^4 per ml, and drug range 100-0.03 μg/ml. The plates were incubated at 37° C., 5% CO2 in an air humidified incabator for 11-14 days. The cells were fixed by immersing the plates in formoli saline (10% formaldehyde; 10% 1.5M NaCl; 80% water) for 1 hour minimum. The cells were stained with 10% crystal violet for 15 minutes.
The assay was scored by looking for presence of syncitia and, virus induced cytopathic effect in the cell monolayers, under a microscope. Results are given as the minimum concentration of drug inhibiting syncitial production, minimum inhibitory concentration, MIC.

Converted amounts (≈) assume the structure as drawn.

Our source for the IC50 and MCC values is patent US5356886A, “Antiviral phosphono-alken derivatives of purines” (Beecham Group p.l.c., priority 1990, dated 1994).

In the case of `Nc1nc2c(ncn2OCC/C=C/P(=O)(O)O)c(=O)[nH]1` [Example 1, (E)-9-(4-phosphonobut-3-enyloxy)guanine], the 50% inhibitory concentration (IC50) – broadly, the concentration that inhibits the measured activity by half – was less than 3 µg/mL in the data set on VZV, less than 3 µg/mL in the data set with HSV-1, 0.16 µg/mL (≈ 0.531 µM) with CMV and less than 3 µg/mL with HSV-2. The MCC in data set [1] is greater than 100 µg/mL.
